Patent publication US4317917A, “Derivatives of methyl-substituted or methoxy-substituted 2-hydroxybenzoic acids, and pharmaceutical formulations containing them” (priority 1979, dated 1982)
In brackets after ≈: the same amount, converted by molar mass.

Experiments:
[1] = tested on: edema induced by kaolin; assay: Antiinflammatory activity, edema by kaolin, diameter of the tibiotarsal joint; format: in vivo, rat
Description: The antiedematous action of AF1 was also investigated by the test of Conbon and coll. (Arch.Int.Pharmacodyn. 99; 474, 1954), consisting of measuring the diameter of the tibiotarsal joint in both the rear paws of the rat. Groups of five animals representing controls and treated animals were used for two separate experiments. 0.2 ml of a sterile 10% kaolin suspension was injected directly into the joint of the two rear paws of each animal.
The joint diameter was measured one hour after the kaolin injection and then every 24 hours afterwards for five consecutive days. The AF1 compound was administered intraperitoneally in a quantity of 100 mg/kg one hour after the kaolin injection and at the same time on the following days over the entire test period.

[2] = tested on: painful reaction; assay: Analgesic activity in the mouse (method of Ben Bassat and coll.); format: in vivo; conditions: 100 mg/kg oral
Description: The analgesic activity of the compound under examination was tested in the mouse by the method of Ben Bassat and coll. (Arch. Int. Pharmacodyn, 122, 434, 1954) and comparing the drug in question with Tanderil® (T).

[3] = tested on: conjunctival sac of the eye of a rabbit; assay: Local tolerability check, conjunctival sac of the rabbit eye; format: in vivo; conditions: 0.5 solution dropped into conjunctival sac
[4] = tested on: edema induced in the rear paw of the rat by carrageen; assay: Antiinflammatory activity, edema by carrageen in the rear paw of the rat (method of Winter); format: in vivo, Wistar rat
Description: The antiinflammatory activity of AF1 was evaluated in comparison with that of a known drug (Tanderil®) by inhibiting the edema induced in the rear paw of the rat by carrageen. The method used is that described by Winter.
The substances examined were administered orally to Wistar rats having a body weight of 165±15 g.
The percentage edema inhibition for the various groups of animals was calculated by putting the average percentage increase of the control group equal to 100.

[5] = tested on: Sarcina lutea; assay: In vitro antibacterial activity, minimum inhibiting concentration (C.M.I.), Sarcina lutea; format: cell-based; conditions: Micrococcus luteus, Gram (+), Difco nutrient broth
Description: (§1) The antiseptic power of the substance under examination was evaluated by determining the minimum inhibiting concentration (C.M.I.) on a series of Gram negative and Gram positive germs related to the pathology of the respiratory tree.
(§2) The culture broth used was Difco nutrient broth, and 8 test samples were used for each concentration tested. Guaiacol was used as the comparison drug.

[6] = tested on: Micrococcus tuberc. (bovis); assay: In vitro antibacterial activity, minimum inhibiting concentration (C.M.I.), Micrococcus tuberc. (bovis); format: cell-based; conditions: read-out: Minimum inhibiting concentration
Description: as §1, §2

[7] = tested on: rat; assay: Subacute toxicity in the rat by intramuscular administration; format: in vivo; conditions: 60 and 120 mg/kg/die, 25 consecutive days
Description: 2. Subacute toxicity in the rat by intramuscular administration
The test was carried out for 25 consecutive days using drug doses of 60 and 120 mg/kg/die.

[8] = tested on: stomachs; assay: Ulcerogenic action in the female Wistar rat; format: in vivo; conditions: four hours after treatment
Description: The ulcerogenic action of the product was evaluated in the female Wistar rat in comparison with that of other known antiinflammatory drugs.
The products were administered orally in a dose corresponding to about two fifths their LD50.
The animals were sacrificed four hours after treatment, and the stomachs examined to check any presence of ulcers.

[9] = Acute toxicity (LD50) in the Wistar rat; conditions: in vivo, seventh day
Description: (§3) Acute toxicity of the product was studied in the Swiss mouse and Wistar rat by oral and intraperitoneal administration. The substance was carried in 5% gum arabic for both methods of administration. The volumes inoculated for both methods of administration were 20 ml/kg of body weight for the mouse and 5 ml/kg for the rat. The LD50 values expressed in mg/kg were calculated on the seventh day of treatment by the probital analysis method.

[10] = tested on: tissues where the drug was introduced; assay: Local tolerability check, intramuscular administration in the rat; format: in vivo; conditions: 60-120 mg/kg/die, 25 consecutive days
[11] = tested on: Haemophilus influeniae; assay: In vitro antibacterial activity, minimum inhibiting concentration (C.M.I.), Haemophilus influeniae; format: cell-based; conditions: Gram (-), Difco nutrient broth
Description: as §1, §2

[12] = tested on: gastric or duodenal lesion; assay: Gastric or duodenal lesions in mice treated for 5 consecutive days; format: in vivo; conditions: 200 mg/kg per day
[13] = tested on: Micrococcus catarrhalis; assay: In vitro antibacterial activity, minimum inhibiting concentration (C.M.I.), Micrococcus catarrhalis; format: cell-based; conditions: Gram (-), Difco nutrient broth
Description: as §1, §2

[14] = Acute toxicity (LD50) in the Swiss mouse; conditions: in vivo, 95% reliability limits in brackets, seventh day
Description: as §3

[15] = tested on: Micrococcus pyogenes; assay: In vitro antibacterial activity, minimum inhibiting concentration (C.M.I.), Micrococcus pyogenes; format: cell-based; conditions: Staphylococcus aureus, Gram (+), Difco nutrient broth
Description: as §1, §2

[16] = day 1 after kaolin, 100 mg/kg/day intraperitoneally
[17] = day 2 after kaolin, 100 mg/kg/day intraperitoneally
[18] = day 3 after kaolin, 100 mg/kg/day intraperitoneally
[19] = day 4 after kaolin, 100 mg/kg/day intraperitoneally
[20] = day 5 after kaolin, 100 mg/kg/day intraperitoneally

Cc1ccc(OC(=O)C=Cc2ccccc2)c(C(=O)O)c1 [AF1, 2-(3-phenyl-2-propenoyloxy)-5-methylbenzoic acid]
Average of diameters, treated animals ([1]; 0 + 1 hour after kaolin (time of first AF1 dose)): 6.9 mm | Average of diameters, treated animals ([1]; day 0 (baseline, before AF1)): 5.8 mm | % change in tibiotarsal joint diameter relative to controls [1, 16]: -11.1% | Average of diameters, treated animals [1, 16]: 8.8 mm | % change in tibiotarsal joint diameter relative to controls [1, 17]: -14.7% | Average of diameters, treated animals [1, 17]: 8.7 mm | % change in tibiotarsal joint diameter relative to controls [1, 18]: -26.6% | Average of diameters, treated animals [1, 18]: 8.0 mm | % change in tibiotarsal joint diameter relative to controls [1, 19]: -23.3% | Average of diameters, treated animals [1, 19]: 7.9 mm | % change in tibiotarsal joint diameter relative to controls [1, 20]: -25.7% | Average of diameters, treated animals [1, 20]: 7.5 mm | % Increase in the painful reaction time relative to the controls ([2]; 30 min.): 22% | % Increase in the painful reaction time relative to the controls ([2]; 60 min.): 32% | % Increase in the painful reaction time relative to the controls ([2]; 90 min.): 36% | % Increase in the painful reaction time relative to the controls ([2]; 120 min.): 48% | % Increase in the painful reaction time relative to the controls ([2]; 150 min.): 51% | irritating or damaging modification to local tissues [3]: no irritating or otherwise damaging modification to local tissues | Percentage edema inhibition relative to the controls ([4]; 25 mg/kg oral, 4 hours): 42% | Percentage edema inhibition relative to the controls ([4]; 25 mg/kg oral, 6 hours): 71% | Percentage edema inhibition relative to the controls ([4]; 50 mg/kg oral, 4 hours): 62% | Percentage edema inhibition relative to the controls ([4]; 50 mg/kg oral, 6 hours): 84% | Percentage edema inhibition relative to the controls ([4]; 75 mg/kg oral, 4 hours): 73% | Percentage edema inhibition relative to the controls ([4]; 75 mg/kg oral, 6 hours): 87% | MIC [5]: 9.15 mg/mL (≈ 32.4 mM) | MIC [6]: 3.15 mg/mL (≈ 11.2 mM) | condition of the rats [7]: always excellent | significant changes in general condition and weight [7]: neither were there significant changes in general condition and weight | No. of ulcerated animals/No. of treated animals ([8]; 400 mg/kg oral): 0/10 | No. of ulcerated animals/No. of treated animals ([8]; 800 mg/kg oral): 1/10 | LD50 at 168 h ([9]; ip, 95% reliability limits in brackets): 734 mg/kg | LD50 at 168 h ([9]; oral): > 2000 mg/kg | macroscopic change in the tissues where the drug was introduced [10]: no macroscopic change in the tissues where the drug was introduced | other undesirable local phenomena [10]: neither were other undesirable local phenomena observed | MIC [11]: 16 mg/mL (≈ 56.7 mM) | gastric or duodenal lesion [12]: no sign of any gastric or duodenal lesion | MIC [13]: 4.3 mg/mL (≈ 15.2 mM) | LD50 at 168 h ([14]; ip): 410 mg/kg | LD50 at 168 h ([14]; oral): 902 mg/kg | MIC [15]: 16.6 mg/mL (≈ 58.8 mM)

COc1ccccc1O [Guaiacol, reference compound]
MIC [5]: 33 mg/mL (≈ 266 mM) | MIC [6]: 33 mg/mL (≈ 266 mM) | MIC [11]: 33 mg/mL (≈ 266 mM) | MIC [13]: 16.6 mg/mL (≈ 134 mM) | MIC [15]: 33 mg/mL (≈ 266 mM)

COc1ccc2cc([C@H](C)C(=O)O)ccc2c1 [Naproxen, reference compound]
No. of ulcerated animals/No. of treated animals ([8]; 200 mg/kg oral): 5/10

CCCCC1C(=O)N(c2ccccc2)N(c2ccc(O)cc2)C1=O (stereo not shown) [Tanderil, reference compound]
% Increase in the painful reaction time relative to the controls ([2]; 30 min.): 11% | % Increase in the painful reaction time relative to the controls ([2]; 60 min.): 14% | % Increase in the painful reaction time relative to the controls ([2]; 90 min.): 15% | % Increase in the painful reaction time relative to the controls ([2]; 120 min.): 20% | % Increase in the painful reaction time relative to the controls ([2]; 150 min.): 21% | Percentage edema inhibition relative to the controls ([4]; 25 mg/kg oral, 4 hours): 58% | Percentage edema inhibition relative to the controls ([4]; 25 mg/kg oral, 6 hours): 68% | Percentage edema inhibition relative to the controls ([4]; 50 mg/kg oral, 4 hours): 56% | Percentage edema inhibition relative to the controls ([4]; 50 mg/kg oral, 6 hours): 78%
